Assay: Room temperature storage of ketorolac formulated at different pH
Assay type: physicochemical
Settings: formulated with a pH of less than 5 or greater than 9

degradation when stored at room temperature: would degrade
Compound: O=C(c1ccccc1)c1ccc2n1CCC2C(=O)O (stereo not shown) [ketorolac, Ketorolac]
